The values below come from ChEMBL document CHEMBL4219141, “Identification of an aminothiazole series of RORβ modulators” (Bioorg Med Chem Lett, 2018).

Active and inactive are the calls of the source. No cut-off for these calls is given here. Bounds are passed on as bounds.

The nature of series [1]: Half life in mouse liver microsomes at 1 uM in presence of NADPH by LC-MS/MS analysis. The format is ADME, microsome.
Series [2] concerns the target T1, Nuclear receptor ROR-alpha (Homo sapiens) (UniProt P35398).
T1 sequence (whole entry): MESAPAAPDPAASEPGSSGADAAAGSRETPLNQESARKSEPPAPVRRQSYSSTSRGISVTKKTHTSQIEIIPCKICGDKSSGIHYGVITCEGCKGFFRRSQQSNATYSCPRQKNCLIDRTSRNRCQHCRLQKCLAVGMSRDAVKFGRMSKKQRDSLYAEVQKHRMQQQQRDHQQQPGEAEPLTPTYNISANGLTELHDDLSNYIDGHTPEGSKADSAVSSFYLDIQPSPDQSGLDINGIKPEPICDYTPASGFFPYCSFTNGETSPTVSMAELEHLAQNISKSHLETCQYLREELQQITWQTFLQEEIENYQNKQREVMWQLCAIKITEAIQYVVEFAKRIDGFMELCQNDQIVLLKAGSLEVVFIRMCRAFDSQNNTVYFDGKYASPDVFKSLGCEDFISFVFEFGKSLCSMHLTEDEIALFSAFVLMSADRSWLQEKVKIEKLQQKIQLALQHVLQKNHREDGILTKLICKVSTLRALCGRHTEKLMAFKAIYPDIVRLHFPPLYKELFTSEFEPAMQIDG
The experiment in a line: Inverse agonist activity at GAL4-DNA binding domain-fused human RORalpha ligand binding domain expressed in HEK293T cells incubated for 20 hrs by luciferase reporter gene assay. The series is classed as cell-based. For orientation: A reporter such as luciferase makes a cellular process visible.

Series [3] concerns the target T2, Nuclear receptor ROR-gamma (Homo sapiens, UniProt P51449).
T2 sequence (P51449 whole entry): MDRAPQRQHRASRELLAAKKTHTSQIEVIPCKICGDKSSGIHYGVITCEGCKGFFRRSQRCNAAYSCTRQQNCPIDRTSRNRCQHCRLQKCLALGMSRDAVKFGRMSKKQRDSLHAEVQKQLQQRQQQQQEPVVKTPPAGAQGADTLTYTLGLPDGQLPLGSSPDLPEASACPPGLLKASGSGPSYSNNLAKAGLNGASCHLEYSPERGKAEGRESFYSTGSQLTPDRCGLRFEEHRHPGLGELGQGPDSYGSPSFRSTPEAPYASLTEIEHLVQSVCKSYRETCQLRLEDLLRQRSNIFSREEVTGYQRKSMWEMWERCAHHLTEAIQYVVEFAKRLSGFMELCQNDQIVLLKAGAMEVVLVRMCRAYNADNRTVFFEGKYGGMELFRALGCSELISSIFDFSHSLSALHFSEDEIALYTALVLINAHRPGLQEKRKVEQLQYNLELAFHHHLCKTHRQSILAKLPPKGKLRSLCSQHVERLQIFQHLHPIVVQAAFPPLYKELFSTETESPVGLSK

Another series deals with HEK-293T. The experiment in a line: Toxicity in HEK293T cells at 10 uM. The series is classed as cell-based. The note with it: human.

Turning to `Nc1nc(-c2ccc(Br)c(C(F)(F)F)c2)c(C(=O)c2ccccc2Cl)s1`, in series [1], the t1/2 worked out at 2.5 min.
The same measure, in the same setting: next, `Nc1nc(-c2cccc(C(F)(F)F)c2)c(C(=O)c2ccccc2Cl)s1`: 2.9 min; `Nc1nc(-c2cc(C(F)(F)F)cc(C(F)(F)F)c2)c(C(=O)c2ccccc2Cl)s1`: 7.4 min; `COc1ccccc1C(=O)c1sc(N)nc1-c1cc(C(F)(F)F)cc(C(F)(F)F)c1`: 5.2 min.
A word on the IC50: it is the midpoint of a concentration-inhibition curve. High values mean lower potency, low ones higher potency. As for `COc1ccccc1C(=O)c1sc(N)nc1-c1ccc(Cl)c(C(F)(F)F)c1`, the result in series [2] was inactive. Besides, the IC50 in series [3] was > 40 µM. Also, in the series on HEK-293T, the Activity result is on record as “Non-Toxic”.
For `Nc1nc(-c2cc(Br)cc(C(F)(F)F)c2)c(C(=O)c2ccccc2Cl)s1`, the outcome in series [2] was inactive. Besides, in series [3], the concentration for half-maximal inhibition (IC50) was > 40 µM. For the same compound, the Activity result in the series on HEK-293T was “Non-Toxic”. Moreover, the t1/2 in series [1] worked out at 5.2 min.
In the case of `Nc1nc(-c2ccc(Cl)c(C(F)(F)F)c2)c(C(=O)c2ccccc2Cl)s1`, the IC50 in series [3] was > 40 µM.
Consider `Nc1nc(-c2cccc(C(F)(F)F)c2)c(C(=O)c2c(F)cccc2Cl)s1`, for which, in series [3], the IC50 was > 40 µM. Moreover, the t1/2 in series [1] turned out to be 2.7 min.
For the compound `Nc1nc(-c2cccc(C(F)(F)F)c2)c(C(=O)c2ccccc2C(F)(F)F)s1`, the IC50 in series [3] was > 40 µM.
As to `Nc1nc(-c2cc(Cl)cc(C(F)(F)F)c2)c(C(=O)c2ccccc2Cl)s1`, the t1/2 in series [1] came out at 6.1 min.
Take `COc1ccccc1C(=O)c1sc(N)nc1-c1cccc(C(F)(F)F)c1`: in series [3], the IC50 is > 40 µM.
Regarding `COc1ccccc1C(=O)c1sc(N)nc1-c1cc(Br)cc(C(F)(F)F)c1`, in series [2], the outcome was inactive. Besides, the Activity result in the series on HEK-293T was “Non-Toxic”. In addition, the t1/2 in series [1] is reported as 2.3 min.
As to `Nc1nc(-c2cccc(Cl)c2)c(C(=O)c2ccccc2Cl)s1`, the result in series [2] was inactive. Moreover, in the series with HEK-293T, the Activity result is listed as “Non-Toxic”. Further, in series [1], the t1/2 came to 1.9 min.
On to `Nc1nc(-c2cccc(C(F)(F)F)c2)c(C(=O)c2ccccc2Br)s1`, for which the IC50 in series [3] is > 40 µM.
The same measure, in the same setting: next, `Nc1nc(-c2cccc(C(F)(F)F)c2)c(C(=O)c2c(F)cccc2C(F)(F)F)s1`: > 40 µM.
On to `CCS(=O)(=O)c1ccc(CC(=O)Nc2nc(-c3ccccc3Cl)c(C(=O)c3ccccc3Cl)s2)cc1`, for which, in the series on HEK-293T, the Activity result is “Non-Toxic”. Besides, the t1/2 in series [1] is recorded as 34 min.
